Among the data in ChEMBL document CHEMBL3108691, “Structural investigation of cycloheptathiophene-3-carboxamide derivatives targeting influenza virus polymerase assembly” (J Med Chem, 2013) are EC50, IC50 and CC50 values, retold here.

The structures appear in SMILES notation.

Data set [1] relates to Influenza A virus. The format is functional, organism-based. The following applies: A/Puerto Rico/8/1934(H1N1), MDCK, 48 h.
Data set [2] has as its target PA/PB1 (Influenza A virus (A/Puerto Rico/8/1934(H1N1)), UniProt P03431+P03433). The data set can be described thus: Inhibition of Influenza A virus (A/Puerto Rico/8/34(H1N1)) His6-tagged PA (239 to 716) interaction with GST-tagged PB1 (1 to 25) expressed in Escherichia coli BL21 (DE3) by ELISA. (In general: An ELISA detects its analyte on a solid surface through an enzyme-linked reagent.)

Data set [3] is described as follows: Cytotoxicity against HEK293 cells assessed as cell viability after 24 hrs by MTT assay. The data set is classed as cell-based. The settings on record: human.
Data set [4] can be described thus: Cytotoxicity against MDCK cells assessed as cell viability after 48 hrs by MTT assay. The data set is classed as cell-based, Canis lupus familiaris. The settings on record: dog. Background: Tetrazolium assays rely on reduction of a dye to a coloured formazan, in cell work by metabolically active cells.
Data set [5] can be described thus: cells. The following applies: Influenza A virus, HEK293, 24 h.
Data set [6] has as its system Influenza A virus. The data set is classed as functional, organism-based. The settings on record: A/Puerto Rico/8/1934(H1N1), MDCK, 12 h.
In data set [7] the test system is Influenza A virus. The format is functional, organism-based, Influenza A virus (A/Wisconsin/67/2005(H3N2)). The following applies: MDCK, 48 h.
Data set [8] concerns Influenza A virus. The data set is classed as functional, organism-based. The settings on record: A/Padova/72/2011(H1N1), MDCK, 48 h.
Data set [9] concerns Influenza A virus. The data set is classed as functional, organism-based. The following applies: A/Padova/253/2011(H1N1), MDCK, 48 h.
In data set [10] the test system is Influenza A virus. The format is functional, organism-based. The following applies: A/Padova/30/2011(H1N1), MDCK, 48 h.
Data set [11] relates to Influenza B virus. Nature of the data set: microbe, parasite or virus in culture. The following applies: B/Lee/1940, MDCK, 48 h.

As usually defined, the EC50 is the concentration that produces a half-maximal response. The low end stands for a more potent agent, the high end for a less potent agent. In general, IC50 refers to the concentration needed to halve the response being measured. Usually CC50 stands for the concentration at which the toxic effect on the cells reaches its halfway point. Compound `O=C(Nc1sc2c(c1C(=O)O)CCCCC2)c1ccccc1F` returned an EC50 in data set [1] of 76 µM. In [2], this compound had an IC50 of 200 µM. Moreover, the CC50 at 24 h in [3] was above 250 µM. In [4], the CC50 at 48 h is above 250 µM.
As to `NC(=O)c1c(NC(=O)c2ccccc2F)sc2c1CCCC2`, the EC50 in data set [1] was above 100 µM. In [2], the IC50 was above 200 µM. Also, the CC50 at 24 h in [3] is 31 µM. Also, in [4], the CC50 at 48 h came to 118 µM.
In the case of `O=C(Nc1sc2c(c1C(=O)O)CCC2)c1ccccc1F`, the EC50 in data set [1] turned out to be 77 µM. Besides, the IC50 in data set [2] stood at 159 µM. Besides, the CC50 at 24 h in data set [3] is above 250 µM. The CC50 at 48 h in data set [4] is above 250 µM.
The compound `CCOC(=O)c1c(NC(=O)c2ccc(OC)cc2)sc2c1CCCCC2` registered an EC50 in [1] of 95 µM. This compound also came in with an IC50 in [2] above 200 µM. Moreover, the half-maximal cytotoxic concentration (CC50) at 24 h in data set [3] is above 250 µM. Further, the CC50 at 48 h in data set [4] was above 250 µM.
As to `NC(=O)c1c(NC(=O)c2ccccc2F)sc2c1CCC2`, the IC50 in data set [2] was above 200 µM.
Compound `CCOC(=O)c1c(NC(=O)c2ccccc2F)sc2c1CCCCC2` yielded an EC50 in data set [1] of 78 µM. Also, 200 µM corresponded to half-maximal inhibition in data set [2] (IC50). The CC50 at 24 h in [3] was above 250 µM. The CC50 at 48 h in data set [4] is above 250 µM.
In turn, `CCOC(=O)c1c(NC(=O)c2ccc(F)cc2)sc2c1CCCCC2` registered an EC50 in data set [1] of 91 µM. For the same compound, the IC50 in data set [2] is above 200 µM. In addition, in data set [3], the CC50 at 24 h is above 250 µM. Further, the half-maximal cytotoxic concentration (CC50) at 48 h in [4] is above 250 µM.
Consider `CCOC(=O)c1c(NC(=O)c2ccccc2Cl)sc2c1CCCCC2`, for which the EC50 in data set [1] came to 94 µM. This compound had an IC50 in data set [2] above 200 µM. In addition, the CC50 at 24 h in data set [3] was above 250 µM. Also, in [4], the half-maximal cytotoxic concentration (CC50) at 48 h is above 250 µM.
In the case of `CCOC(=O)c1c(NC(=O)c2ccc(Cl)cc2)sc2c1CCCCC2`, in [1], a half-maximal effect (EC50) was put at 89 µM. The same compound came in with an IC50 in [2] above 200 µM. For the same compound, the CC50 at 24 h in data set [3] is above 250 µM. Moreover, the half-maximal cytotoxic concentration (CC50) at 48 h in data set [4] is above 250 µM.
Take `O=C(Nc1sc2c(c1C(=O)O)CCCCC2)c1ccc(F)cc1`: in data set [2], the IC50 was above 200 µM.
As to `O=C(Nc1sc2c(c1C(=O)O)CCCCC2)c1ccccc1Cl`, the IC50 in [2] is above 200 µM.
Same read-out and setting: the value for `O=C(Nc1sc2c(c1C(=O)O)CCCCC2)c1ccc(Cl)cc1` was above 200 µM; that for `COc1ccc(C(=O)Nc2sc3c(c2C(=O)O)CCCCC3)cc1` was above 200 µM; that for `O=C(Nc1sc2c(c1C(=O)Nc1ccccn1)CCCC2)c1ccccc1F` was above 200 µM.
On the same count and under the same terms, to `O=C(Nc1sc2c(c1C(=O)Nc1ccccn1)CCC2)c1ccccc1F` belongs above 200 µM.
The compound `CCOC(=O)c1c(NC(=O)c2ccccc2F)sc2c1CCC2` showed a concentration for a half-maximal effect (EC50) in data set [1] above 100 µM. The compound also had an IC50 in data set [2] above 200 µM. Moreover, in data set [3], the CC50 at 24 h was above 250 µM. Further, in data set [4], the CC50 at 48 h was above 250 µM.
In [1], `CSCC[C@H](N)C(=O)N[C@@H](CC(=O)O)C(=O)N[C@H](C(=O)N[C@@H](CC(N)=O)C(=O)N1CCC[C@H]1C(=O)N[C@H](C(=O)N[C@@H](CC(C)C)C(=O)N[C@@H](CC(C)C)C(=O)N[C@@H](Cc1ccccc1)C(=O)N[C@@H](CC(C)C)C(=O)N[C@@H](CCCCN)C(=O)N[C@H](C(=O)N1CCC[C@H]1C(=O)N[C@@H](C)C(=O)N[C@@H](CCC(N)=O)C(=O)O)C(C)C)[C@@H](C)O)C(C)C` came in with an EC50 of 40 µM. In data set [2], this compound displayed an IC50 of 35 µM. In addition, in data set [3], the CC50 at 24 h was above 100 µM. The 50% cytotoxic concentration (CC50) at 48 h in data set [4] is above 100 µM.
The compound `O=C(Nc1sc2c(c1C(=O)Nc1ccccn1)CCCCC2)c1ccccc1` had an IC50 in [2] of 87 µM.
Consider `O=C(Nc1sc2c(c1C(=O)Nc1ccccn1)CCCCC2)c1cccc(F)c1`, for which, in [2], the IC50 is above 200 µM.
On to `O=C(Nc1sc2c(c1C(=O)Nc1ccccn1)CCCCC2)c1ccc(F)cc1`, for which half-maximal inhibition in [2] (IC50) was put at 99 µM.
For `O=C(Nc1sc2c(c1C(=O)Nc1ccccn1)CCCCC2)c1ccccc1Cl`, the IC50 in [2] was determined as 134 µM.
The compound `O=C(Nc1sc2c(c1C(=O)Nc1ccccn1)CCCCC2)c1ccc(Cl)cc1` came in with an IC50 in data set [2] of 32 µM.
The compound `O=C(Nc1sc2c(c1C(=O)Nc1ccccn1)CCCCC2)c1ccc(F)cc1Cl` showed an IC50 in data set [2] above 200 µM.
As for `O=C(Nc1sc2c(c1C(=O)Nc1ccccn1)CCCCC2)c1ccc(Cl)cc1Cl`, in data set [2], the half-inhibitory concentration (IC50) was above 200 µM.
Still for that read-out and setting: the value for `O=C(Nc1ccccn1)c1c(NC(=O)C2CCCCC2)sc2c1CCCCC2` was above 200 µM.
In data set [1], `O=C(Cc1ccc(F)cc1)Nc1sc2c(c1C(=O)Nc1ccccn1)CCCCC2` had an EC50 of 16 µM. The IC50 in [2] was above 200 µM. The CC50 at 24 h in data set [3] is 250 µM. The CC50 at 48 h in data set [4] was above 250 µM.
For `O=C(Cc1ccc(Cl)cc1)Nc1sc2c(c1C(=O)Nc1ccccn1)CCCCC2`, the midpoint of the response in data set [1], the EC50, lay at 19 µM. The compound further had an IC50 in [2] above 200 µM. The 50% cytotoxic concentration (CC50) at 24 h in data set [3] is above 250 µM. Also, the CC50 at 48 h in [4] is above 250 µM.
`O=C(Cc1ccccc1)Nc1sc2c(c1C(=O)Nc1ccccn1)CCCCC2`: a half-maximal effect in data set [1] (EC50) was put at 19 µM. In [2], this compound registered an IC50 above 200 µM. The CC50 at 24 h in data set [3] worked out at 220 µM. In addition, the CC50 at 48 h in data set [4] was above 250 µM.
Turning to `O=C(CCc1ccc(F)cc1)Nc1sc2c(c1C(=O)Nc1ccccn1)CCCCC2`, in [2], the IC50 is above 200 µM.
Turning to `O=C(CC1CCCCC1)Nc1sc2c(c1C(=O)Nc1ccccn1)CCCCC2`, the IC50 in data set [2] was above 200 µM.
Still for that read-out and setting: to `O=C(CCc1ccc(Cl)cc1)Nc1sc2c(c1C(=O)Nc1ccccn1)CCCCC2` belongs above 200 µM.
In data set [2], `O=C(CCc1ccccc1)Nc1sc2c(c1C(=O)Nc1ccccn1)CCCCC2` displayed an IC50 above 200 µM.
For `O=C(Cc1ccc2ncccc2c1)Nc1sc2c(c1C(=O)Nc1ccccn1)CCCCC2`, the response in data set [1] was half-maximal at 58 µM (EC50). In [2], the IC50 worked out at 48 µM. The CC50 at 24 h in data set [3] is above 250 µM. In addition, the CC50 at 48 h in data set [4] was above 250 µM.
With `COc1c(CC(=O)Nc2sc3c(c2C(=O)Nc2ccccn2)CCCCC3)sc2ccccc12`, the figures for the EC50 in data set [5], in [1] and in data set [6] were above 100 µM, 61 µM and 6 µM, respectively. In data set [2], this compound registered an IC50 of 90 µM. The CC50 at 24 h in data set [3] was above 250 µM. The CC50 at 48 h in data set [4] is above 250 µM.
`Nc1sc2c(c1C(=O)Nc1ccccn1)CCCCC2` registered an IC50 in [2] of 35 µM.
In turn, `NC(=O)c1c(NC(=O)c2ccccc2F)sc2c1CCCCC2` returned an IC50 in data set [2] above 200 µM.
As for `NC(=O)c1ncn([C@@H]2O[C@H](CO)[C@@H](O)[C@H]2O)n1` [RIBAVIRIN], the 50% effective concentration (EC50) in [7] is 12 µM; in data set [5] it was 15 µM; in [8], 6 µM; in [1], 8 µM; in [6], 2 µM; in data set [9], 11 µM. The figures for the EC50 in [10] and in data set [11] were 7 µM and 6 µM, respectively. In addition, in data set [3], the CC50 at 24 h was above 250 µM. The CC50 at 48 h in [4] was above 250 µM.
